From ChEMBL document CHEMBL5365461, “Degradation of Cyclin-Dependent Kinase 9/Cyclin T1 by Optimized Microtubule-Associated Protein 1 Light Chain 3 Beta-Recruiting Coumarin Analogs” (J Med Chem, 2023)
Activity calls are given as the source filed them. The rule behind the calls is not given here.

Columns and labels:
[1] = target: Cyclin-dependent kinase 9 (Homo sapiens) (UniProt P50750); assay: Induction of CDK9 55 kDa degradation in human U2932 cells assessed as maximal efficacy at 1 to 1000 nM by immunoblotting analysis relative to control; format: cell-based; conditions: dose 1-1000 nM
Sequence of Cyclin-dependent kinase 9 (Homo sapiens) (P50750 whole entry): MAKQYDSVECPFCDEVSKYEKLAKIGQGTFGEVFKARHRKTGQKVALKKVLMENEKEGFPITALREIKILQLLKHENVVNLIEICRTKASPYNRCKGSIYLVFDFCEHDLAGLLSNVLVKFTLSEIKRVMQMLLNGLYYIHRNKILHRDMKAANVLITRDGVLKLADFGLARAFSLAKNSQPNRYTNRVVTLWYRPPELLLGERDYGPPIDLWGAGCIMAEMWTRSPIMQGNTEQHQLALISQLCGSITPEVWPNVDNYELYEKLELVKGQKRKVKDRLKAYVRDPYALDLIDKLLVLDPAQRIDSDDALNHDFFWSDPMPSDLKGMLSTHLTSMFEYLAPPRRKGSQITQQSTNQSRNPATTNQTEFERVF

[2] = tested on: U2932; assay: Downregulation of RNAP2 phosphorylation at serine 5 residue in human U2932 cells at 10 to 1000 nM incubated for 6 hrs by immunoblotting analysis; format: functional, cell-based; conditions: dose 10-1000 nM
[3] = tested on: MV4-11; assay: Downregulation of Mcl-1 protein level in human MV4-11 cells incubated for 6 hrs by RT-qPCR analysis; format: functional, cell-based; conditions: dose 10-1000 nM
[4] = tested on: U2932; assay: Induction of apoptosis in human U2932 cells assessed as late apoptotic cells at 1000 nM incubated for 24 hrs by AnnexinV-FITC/PI staining based flow cytometry analysis (reference value: 5.95%); format: functional
[5] = target: Cyclin-dependent kinase 9 (Homo sapiens) (UniProt P50750); assay: Induction of CDK9 42 kDa degradation in human U2932 cells at 500 nM incubated for 12 hrs in presence of MG132 by immunoblotting analysis; format: cell-based
[6] = target: Cyclin-dependent kinase 9 (Homo sapiens) (UniProt P50750); assay: Induction of CDK9 55 kDa degradation in human U2932 cells at 500 nM incubated for 12 hrs in presence of MG132 by immunoblotting analysis; format: cell-based
[7] = target: Cyclin-dependent kinase 9 (Homo sapiens) (UniProt P50750); assay: Induction of CDK9 42 kDa degradation in human U2932 cells at 500 nM incubated for 12 hrs in presence of BafA1 by Co-immunoprecipitation analysis; format: cell-based
[8] = tested on: U2932; assay: Induction of LC3B […] in human U2932 cells at 500 nM incubated for 12 hrs in presence of BafA1 by Co-immunoprecipitation analysis; format: cell-based
[9] = target: Cyclin-dependent kinase 9 (Homo sapiens) (UniProt P50750); assay: Induction of CDK9 degradation in LC3B knockout HEK293T cells at 100 nM incubated for 24 hrs by immunoblotting analysis; format: cell-based
[10] = Cmax in CD-1 mouse at 5 mg/kg, ip measured after 24 hrs by LC-MS/MS analysis; format: ADME, organism-based; parameters: dose 5 mg/kg, time 24 hrs, route ip; conditions: in vivo
[11] = tested on: MV4-11; assay: Antitumor activity against human MV4-11 cells xenografted in mouse assessed as reduction in tumor growth at 5 mg/kg, ip qd measured after 15 days; format: functional, organism-based; conditions: time 15.0 day
[12] = tested on: MV4-11; assay: Antitumor activity against human MV4-11 cells xenografted in mouse assessed as tumor growth inhibition at 5 mg/kg, ip qd measured after 15 days; format: functional; conditions: MV4-11, 360 h, time 15 day, read-out: TGI
[13] = Toxicity in mouse xenografted with human MV4-11 cells assessed as change in body weight at 5 mg/kg, ip qd measured after 15 days; format: organism-based; conditions: in vivo, 360 h, time 15 day
[14] = tested on: MV4-11; assay: Antitumor activity against human MV4-11 cells xenografted in mouse assessed as reduction in CDK9 level in tumor at 5 mg/kg, ip qd measured after 15 days by immunoblotting analysis; format: functional, organism-based; conditions: time 15.0 day
[15] = tested on: MV4-11; assay: Antitumor activity against human MV4-11 cells xenografted in mouse assessed as reduction in c-Myc level in tumor at 5 mg/kg, ip qd measured after 15 days by immunoblotting analysis; format: functional, organism-based; conditions: time 15.0 day
[16] = tested on: MV4-11; assay: Antitumor activity against human MV4-11 cells xenografted in mouse assessed as reduction in Mcl level in tumor at 5 mg/kg, ip qd measured after 15 days by immunoblotting analysis; format: functional, organism-based; conditions: time 15.0 day
[17] = target: CDK9/cyclin T1 (Homo sapiens) (UniProt O60563+P50750); assay: Induction of CDK9/CyclinT1 degradation in human U2932 cells at 100 nM measured after 24 hrs by immunoblotting analysis; format: cell-based
[18] = target: Cyclin-dependent kinase 1 (Homo sapiens) (UniProt P06493); assay: Induction of CDK1 degradation in human U2932 cells at 100 nM incubated for 24 hrs by immunoblotting analysis; format: cell-based
Sequence of Cyclin-dependent kinase 1 (Homo sapiens) (P06493 whole entry, looked up): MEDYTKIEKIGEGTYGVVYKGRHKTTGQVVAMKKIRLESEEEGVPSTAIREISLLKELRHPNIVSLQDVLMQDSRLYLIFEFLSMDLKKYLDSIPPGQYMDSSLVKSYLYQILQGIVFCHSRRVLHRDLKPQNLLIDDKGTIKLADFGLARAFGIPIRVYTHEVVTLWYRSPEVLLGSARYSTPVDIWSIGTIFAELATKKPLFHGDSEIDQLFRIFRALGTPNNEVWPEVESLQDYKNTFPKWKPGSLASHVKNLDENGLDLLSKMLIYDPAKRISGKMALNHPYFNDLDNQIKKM

| Emax [1] | Activity [5] | Activity [6] | Activity [7] | Activity [9] | Cmax [10] | Activity [17] | Activity [18] | SMILES | Activity [2] | Activity [3] | Activity [4] | Activity [8] | Activity [11] | inhibition in vivo at 5 mg/kg [12] | Activity [13] | Activity [14] | Activity [15] | Activity [16] |
| --- | --- | --- | --- | --- | --- | --- | --- | --- | --- | --- | --- | --- | --- | --- | --- | --- | --- | --- |
| 54.8% | Active | Active | Active | inactive | 88.4 ng/mL |  |  | Cc1cc(=O)oc2cc(O)cc(OCCCCCN3CCC(C(=O)Nc4ncc(SCc5ncc(C(C)(C)C)o5)s4)CC3)c12 | inactive | Dose-Dependent Effect | 40.9% | Active | Active | 52% | Non-Toxic | Active | Active | Active |
| 46% | Active | Active | Active | inactive | 88.6 ng/mL | Active | Active | Cc1cc(=O)oc2cc(OCCCN3CCC(C(=O)Nc4ncc(SCc5ncc(C(C)(C)C)o5)s4)CC3)cc(O)c12 | inactive | Dose-Dependent Effect | 38.7% | Active |  |  |  |  |  |  |
